One data set has as its system HT-1376 cells. The experiment in a line: Uptake of extracellular MTA by MTAP-non-deficient cells HT-1376 (MTA in culture solution, LC-MS). It is filed as in vitro ADME. The following applies: HT-1376, MTA added at 100 nM, 0, 4, 24, 48, 72 hours. The procedure: (§1) Since the MTA concentration in the culture solution of MTAP-deficient cells increases over time, it is inferred that there is an intracellular to extracellular MTA transfer pathway. However, in MTAP-non-deficient cells. MTA concentration in the culture solution was very low (FIG. 2), despite the expected presence of ˜1 uM MTA within the cells (FIG. 1). […] Thereafter, an MTA solution was added to the culture solution so as to make the MTA concentration 100 nM, and the cells were cultured for a predetermined time (MTA: Sigma, Catalog No. D5011-100MG).

The subject of another data set is SK-MES-1 cells. The experiment in a line: Uptake of extracellular MTA by MTAP-non-deficient cells SK-MES-1 (MTA in culture solution, LC-MS). It is filed as in vitro ADME. The conditions noted are these: SK-MES-1, MTA added at 100 nM, 0, 4, 24, 48, 72 hours. As to the method: as §1

SMILES strings stand for the structures.

Turning to `CSC[C@H]1O[C@@H](n2cnc3c(N)ncnc32)[C@H](O)[C@@H]1O` (stereo in doubt) [MTA, methylthioadenosine], the “MTA concentration in the culture solution” value in the data set with HT-1376 cells and in the data set on SK-MES-1 cells was “decreased over time” in each case.

Values taken from patent US20220153875A1, “ANTIGEN-BINDING MOLECULE CONTAINING ANTIGEN-BINDING DOMAIN OF WHICH BINDING ACTIVITY TO ANTIGEN IS CHANGED DEPENDING ON MTA, AND LIBRARY FOR OBTAINING SAID ANTIGEN-BINDING DOMAIN” (Chugai Seiyaku Kabushiki Kaisha, priority 2019, published 2022).
